In EP0164478A2, “Citric-acid salt of (-)vinburnine and process for its preparation” (COVEX (S.A.), priority 1984, dated 1985):
Counter-ions that a name gives are not always drawn.

Experiments:
[1] = DL50 in the dog, intravenous administration; type: in vivo, chien; conditions: i.v.; for DL50: relative to vinburnine = 1,0 (arbitrary)
From the text: Les propriétés pharmacologiques du citrate de vinburnine ont été utlisées en thérapie avec de bons résultats.

[2] = system: circulation cérébrale (artère carotide interne); experiment: Cerebral circulation (internal carotid artery) and vascular resistance after intravenous and intra-arterial administration in dogs; type: in vivo, chiens; conditions: relative to vinburnine = 1,0 (arbitrary); for CERVEAU Diminution résistance vasculaire i.v. / CERVEAU augmentation circulation i.v.: 1 à 4 mg/kg, 4 mg/kg
Protocol: D'autre part, on a réalisé une étude spr la pression sanguine et la circulation cérébrale en administrant des doses intraveineuses de 1 à 4 mg/kg d'animal.
Dans l'étude de l'effet de ce composé, on a enregistré et calculé la circulation cérébrale (artère carotide interne) et la résistance vasculaire lors de l'administration des composés par voie intraveineuse et intraartérielle chez des chiens. Les valeurs données dans le tableau suivant sont rapportés à la valeur de 1,0 donnée arbitrairement à la vinburnine.

[3] = system: consommation cérébrale du C14-desoxyglucose; experiment: Cerebral consumption of C14-labelled deoxyglucose in dogs (Fig. 1); type: in vivo, chiens; conditions: 1 à 4 Mg/kg, C14-deoxyglucose given orally, compared with untreated animal and with vinburnine (Fig. 1)
From the text: (§1) L'invention sera mieux comprise à la lecture du complément de description qui suit se référant aux dessins annexés dans lesquels: • - La Fig.l est une illustration graphique de l'augmentation de consommation cérébrale de desoxyglucose chez un animal traité avec le citrate de vinburnine • - La Fig.2, est une illustration graphique de l'augmentation de la dissociation de l'oxyhémoglobine chez un animal traité avec le citrate de vinburnine. Dans l'étude sur l'augmentation de la consommation du glucose, on a utilisé des doses de 1 à 4 Mg/kg de citrate de vinburnine chez des chiens auxquels on administre du deoxyglucose marqué au C14, par voie orale.
(§2) Cette différence observée dans l'importance de la dissociation de l'oxyhémoglobine par la vinburnine et le citrate de vinburnine est illustrée sur le graphique de la Fig.2.

Solubility in water = type: physicochemical; conditions: water / aqueous solution
oxyhémoglobine = experiment: Dissociation of oxyhaemoglobin in anaesthetised dogs (Fig. 2); type: in vivo, chiens; conditions: 5mg/kg (Fig. 2)
From the text: as §1, §2

| SMILES | DL50 [1] | CERVEAU Diminution résistance vasculaire i.a. [2] | CERVEAU augmentation circulation i.a. [2] | CERVEAU Diminution résistance vasculaire i.v. [2] | CERVEAU augmentation circulation i.v. [2] | consommation cérébrale du C14-desoxyglucose [3] | solubilité dans l'eau (Solubility in water) | valeurs de DL50 ([1]; in words, compared with vinburnine base) | dissociation de l'oxyhémoglobine (oxyhémoglobine) |
| --- | --- | --- | --- | --- | --- | --- | --- | --- | --- |
| CC[C@]12CCCN3CCc4c(n(c5ccccc45)C(=O)C1)[C@@H]32 [vinburnine] | 1,0 | 1,0 | 1,0 | 1,0 | 1,0 | augmentation de la consommation cérébrale du C14-desoxyglucose | insoluble dans l'eau |  |  |
| CC[C@]12CCCN3CCc4c(n(c5ccccc45)C(=O)C1)[C@@H]32 [citrate de vinburnine, citrate de (-) vinburnine] | 1,2 | 0,6 | 0,8 | 0,8 | 0,9 | consommation du glucose plus importante | soluble en solution aqueuse | sensiblement inférieures à celles correspondant à la vinburnine sous forme de base | augmentation dans la dissociation de l'oxyhémoglobine |
